Measured values as given in article PMC7316778 (Nature Communications, 2020).
pIC50: −log10 of the molar value. Where “and” joins values, the source holds several entries; their conditions need not be identical. Identical values can stand only once.

What was measured:
[1] = test system: FES^S700C HL-60 neutrophils; assay: Phagocytosis assay with GFP-expressing E. coli; assay type: cell-based, human; conditions: for GFP-positive cells (%): Sup. Fig. 15a; for Mean GFP intensity (RFU): Sup. Fig. 15b
Method: HL-60 cells were differentiated to neutrophils as described above. Cells were counted and centrifuged (200g, 5 min), followed by resuspension in growth medium without antibiotics. Cells were incubated with vehicle or inhibitor (from 1000x concentrated stocks in DMSO) for 1 h at 37 °C prior to infection (1×10^6 cells in 900 µL in 12-well plate). Meanwhile, E. coli B834(DE3) constitutively expressing GFP^A206K were grown in LB medium to an OD600 of 0.4–1.0, after which bacteria were centrifuged (2000g, 5 min), washed and resuspended in PBS to appropriate density. Neutrophils were infected by addition of bacteria at multiplicity of infection (MOI) of 30 unless stated otherwise. Cells were then incubated for 1 h at 37 °C unless stated otherwise, after which cells were resuspended and transferred to Eppendorf tubes, washed in FACS buffer (1 mL, 500g, 3 min) and fixed in 1% PFA in PBS (15 min, 4 °C, in the dark). Samples were further processed as described above.
Events (generally 20,000 per condition) were gated by forward and side scatter (cells), side scatter area (singlets) and the percentage of GFP-positive cells and GFP mean fluorescence intensity (MFI) were determined based on background fluorescence for non-infected cells. The GREEN-B channel (525/30 filter) was used to detect GFP.

FES^WT = biological target: T1, FES^WT (Homo sapiens, UniProt P07332); assay: In vitro TR-FRET kinase assay; assay type: biochemical; conditions: for Residual activity (%): FES WT, mean, n=3
T1 construct: human FES cDNA encoding residues 448–822 or human FER cDNA encoding residues 448–820 was amplified by PCR; made in house; host or cells: E. coli BL21(DE3), co-expressing YopH phosphatase
T1 sequence (P07332 448-822): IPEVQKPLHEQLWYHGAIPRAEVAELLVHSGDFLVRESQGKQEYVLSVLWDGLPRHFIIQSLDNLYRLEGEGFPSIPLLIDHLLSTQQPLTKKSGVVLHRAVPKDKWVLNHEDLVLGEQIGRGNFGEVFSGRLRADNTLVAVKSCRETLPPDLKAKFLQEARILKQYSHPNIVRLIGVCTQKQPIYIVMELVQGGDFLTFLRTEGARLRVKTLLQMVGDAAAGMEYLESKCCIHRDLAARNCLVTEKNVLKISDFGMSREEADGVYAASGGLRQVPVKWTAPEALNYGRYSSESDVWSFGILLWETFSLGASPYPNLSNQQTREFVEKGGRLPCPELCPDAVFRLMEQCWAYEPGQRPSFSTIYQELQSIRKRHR
Method: All measurements were performed in triplicate.

FER^WT = FER^WT (Homo sapiens, UniProt P16591); assay: In vitro TR-FRET kinase assay
FER^WT, sequence (P16591 448-820): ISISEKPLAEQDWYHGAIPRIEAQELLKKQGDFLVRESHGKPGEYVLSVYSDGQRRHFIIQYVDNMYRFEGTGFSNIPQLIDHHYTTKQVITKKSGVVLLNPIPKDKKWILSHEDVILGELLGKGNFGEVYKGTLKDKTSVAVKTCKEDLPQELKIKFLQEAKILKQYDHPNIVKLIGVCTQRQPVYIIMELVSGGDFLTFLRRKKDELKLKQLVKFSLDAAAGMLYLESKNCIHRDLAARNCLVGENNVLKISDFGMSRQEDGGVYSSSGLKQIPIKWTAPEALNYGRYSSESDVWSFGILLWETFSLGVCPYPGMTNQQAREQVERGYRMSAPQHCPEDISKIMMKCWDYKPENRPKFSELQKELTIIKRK

COc1cc(Nc2ncc(F)c(Nc3ccc4c(n3)NC(=O)C(C)(C)O4)n2)cc(OC)c1OC [Compound R406, R406]
Phagocytic index ([1]; Figure 7i, replicates): 212.415 and 224.559 and 218.427 and 271.225 and 264.489 | Phagocytosis ([1]; R406 1 µM): reduced phagocytosis to similar levels as observed for WEL028

C=C1[C@@H](C)[C@H]2[C@H](Cc3ccccc3)NC(=O)[C@]23[C@H](OC(C)=O)/C=C/[C@@](C)(O)C(=O)[C@@H](C)C/C=C/[C@H]3[C@@H]1O [Cytochalasin D]
Phagocytic index ([1]; Figure 7i, replicates): 55.7493 and 57.2763 and 70.3881 and 51.4867 and 48.2922 | Phagocytic index ([1]; MOI 0, Sup. Fig. 15d): 8.168 and 11.9502 and 9.328 | Phagocytic index ([1]; MOI 5, Sup. Fig. 15d): 77.8958 and 83.9457 and 75.261 | Phagocytic index ([1]; MOI 10, Sup. Fig. 15d): 109.345 and 104.624 and 85.7245 | Phagocytic index ([1]; MOI 30, Sup. Fig. 15d): 212.699 and 198.296 and 185.432 | Phagocytic index ([1]; MOI 50, Sup. Fig. 15d): 255.429 and 327.443 and 225.712 | GFP-positive cells (%) ([1]; infection time 0 min): 14.1178% and 22.6106% and 27.9257% | Mean GFP intensity (RFU) ([1]; infection time 0 min): 245.785 RFU and 271.934 RFU and 267.216 RFU | GFP-positive cells (%) ([1]; infection time 15 min): 27.3639% and 36.225% and 38.7869% | Mean GFP intensity (RFU) ([1]; infection time 15 min): 283.565 RFU and 293.305 RFU and 282.675 RFU | Phagocytic index ([1]; infection time 15 min, Sup. Fig. 15c): 77.5947 and 106.25 and 109.641 | GFP-positive cells (%) ([1]; infection time 30 min): 33.857% and 41.6734% and 39.0238% | Mean GFP intensity (RFU) ([1]; infection time 30 min): 270.952 RFU and 276.074 RFU and 268.61 RFU | Phagocytic index ([1]; infection time 30 min, Sup. Fig. 15c): 91.7362 and 115.049 and 104.822 | GFP-positive cells (%) ([1]; infection time 60 min): 50.1058% and 58.9504% and 42.1365% | Mean GFP intensity (RFU) ([1]; infection time 60 min): 234.066 RFU and 238.429 RFU and 237.207 RFU | Phagocytic index ([1]; infection time 60 min, Sup. Fig. 15c): 117.281 and 140.555 and 99.951

C=CC(=O)Nc1ccccc1Nc1nc(Nc2ccccc2OC)ncc1Cl [Supplementary Figure 1e]
Residual activity (%) (FES^WT; log[inhibitor] (M) = -5): 4.602% | Residual activity (%) (FES^WT; log[inhibitor] (M) = -5.52288): 7.942% | Residual activity (%) (FES^WT; log[inhibitor] (M) = -6): 20.2502% | Residual activity (%) (FES^WT; log[inhibitor] (M) = -6.52288): 52.3925% | Residual activity (%) (FES^WT; log[inhibitor] (M) = -7): 77.2757% | Residual activity (%) (FES^WT; log[inhibitor] (M) = -7.52288): 90.9565% | Residual activity (%) (FES^WT; log[inhibitor] (M) = -8): 93.9799% | Residual activity (%) (FES^WT; log[inhibitor] (M) = -8.52288): 103.383% | Residual activity (%) (FES^WT; log[inhibitor] (M) = -9): 97.8768% | Residual activity (%) (FES^WT; log[inhibitor] (M) = -9.52288): 97.6076% | Residual activity (%) (FES^WT; log[inhibitor] (M) = -10): 100% | Residual activity (%) (FES^WT; log[inhibitor] (M) = -10.5229): 116.125%

C=CC(=O)Nc1cccc(Nc2nc(Nc3ccccc3OC)ncc2Cl)c1 [Supplementary Figure 1d]
Residual activity (%) (FES^WT; log[inhibitor] (M) = -5): 32.3982% | Residual activity (%) (FES^WT; log[inhibitor] (M) = -5.52288): 40.0335% | Residual activity (%) (FES^WT; log[inhibitor] (M) = -6): 62.9411% | Residual activity (%) (FES^WT; log[inhibitor] (M) = -6.52288): 63.4299% | Residual activity (%) (FES^WT; log[inhibitor] (M) = -7): 90.1255% | Residual activity (%) (FES^WT; log[inhibitor] (M) = -7.52288): 87.1043% | Residual activity (%) (FES^WT; log[inhibitor] (M) = -8): 96.4271% | Residual activity (%) (FES^WT; log[inhibitor] (M) = -8.52288): 92.3122% | Residual activity (%) (FES^WT; log[inhibitor] (M) = -9): 101.396% | Residual activity (%) (FES^WT; log[inhibitor] (M) = -9.52288): 120.198% | Residual activity (%) (FES^WT; log[inhibitor] (M) = -10.5229): 97.4644% | Residual activity (%) (FES^WT; log[inhibitor] (M) = -11): 93.0274%

CCC(=O)Nc1ccccc1Nc1nc(Nc2ccccc2OC)ncc1Cl [Compound 5]
IC50 (FES^WT; TR-FRET assay, 5 µM ATP, n = 3, read-out: pIC50 FES^WT (converted)): > 10 µM | pIC50 (FER^WT): 6.90

COc1ccccc1Nc1ncc(Cl)c(Nc2ccccc2S(=O)(=O)C(C)C)n1 [Supplementary Figure 8c]
Residual activity (%) WT Mean (FER^WT; log[inhibitor] (M) -5): 0.06517% | Residual activity (%) WT Mean (FER^WT; log[inhibitor] (M) -5.52288): 0.1492% | Residual activity (%) WT Mean (FER^WT; log[inhibitor] (M) -6): -0.06836% | Residual activity (%) WT Mean (FER^WT; log[inhibitor] (M) -6.52288): 0.8273% | Residual activity (%) WT Mean (FER^WT; log[inhibitor] (M) -7): 4.343% | Residual activity (%) WT Mean (FER^WT; log[inhibitor] (M) -7.52288): 12.0728% | Residual activity (%) WT Mean (FER^WT; log[inhibitor] (M) -8): 31.4398% | Residual activity (%) WT Mean (FER^WT; log[inhibitor] (M) -8.52288): 59.2785% | Residual activity (%) WT Mean (FER^WT; log[inhibitor] (M) -9): 83.3824% | Residual activity (%) WT Mean (FER^WT; log[inhibitor] (M) -9.52288): 101.278% | Residual activity (%) WT Mean (FER^WT; log[inhibitor] (M) -10): 106.348% | Residual activity (%) WT Mean (FER^WT; log[inhibitor] (M) -10.5229): 105.352% | Residual activity (%) WT Mean (FER^WT; log[inhibitor] (M) -11): 108.85%

Nc1ncnc2c1ncn2[C@@H]1O[C@H](COP(=O)(O)OP(=O)(O)OP(=O)(O)O)[C@@H](O)[C@H]1O [ATP]
Km (FES^WT; FES^WT, TR-FRET, 60 min, read-out: ATP KM): 1.9 µM | Km (FER^WT; read-out: ATP KM, FER^WT): 11 µM
